Laboratory results: patent US9963434B2, “N-arylmethyl sulfonamide negative modulators of NR2A” (LUC THERAPEUTICS, priority 2013, dated 2018)
Like-named read-outs stand apart in the source and are kept apart here. One block for each molecule: values may come before it.

Biological target: NR1/NR2A (Homo sapiens (Human), UniProt Q05586+Q12879)
Test: FDSS Ca2+ influx inhibition assay in HEK293 cells expressing NR1/NR2A
Type: cell-based
Details: 3 μM glutamate, 3 μM glycine, 1 mM Ca2+
Outline: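 Fluo-8-loaded HEK293 NR1/NR2A cells preincubated 10 min with compound at 10 μM final (0.1% DMSO) in Ca2+/Mg2+-free HBSS with 20 mM HEPES. Stimulated with 3 μM glutamate, 3 μM glycine, 1 mM Ca2+; FDSS recording for 3 min, end/baseline fluorescence ratio compared with MK801.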

[1] = inhibition relative to MK801, read-out: NR2A IC50

NR1/NR2A, sequence (Q12879 23-1464, other chains not shown): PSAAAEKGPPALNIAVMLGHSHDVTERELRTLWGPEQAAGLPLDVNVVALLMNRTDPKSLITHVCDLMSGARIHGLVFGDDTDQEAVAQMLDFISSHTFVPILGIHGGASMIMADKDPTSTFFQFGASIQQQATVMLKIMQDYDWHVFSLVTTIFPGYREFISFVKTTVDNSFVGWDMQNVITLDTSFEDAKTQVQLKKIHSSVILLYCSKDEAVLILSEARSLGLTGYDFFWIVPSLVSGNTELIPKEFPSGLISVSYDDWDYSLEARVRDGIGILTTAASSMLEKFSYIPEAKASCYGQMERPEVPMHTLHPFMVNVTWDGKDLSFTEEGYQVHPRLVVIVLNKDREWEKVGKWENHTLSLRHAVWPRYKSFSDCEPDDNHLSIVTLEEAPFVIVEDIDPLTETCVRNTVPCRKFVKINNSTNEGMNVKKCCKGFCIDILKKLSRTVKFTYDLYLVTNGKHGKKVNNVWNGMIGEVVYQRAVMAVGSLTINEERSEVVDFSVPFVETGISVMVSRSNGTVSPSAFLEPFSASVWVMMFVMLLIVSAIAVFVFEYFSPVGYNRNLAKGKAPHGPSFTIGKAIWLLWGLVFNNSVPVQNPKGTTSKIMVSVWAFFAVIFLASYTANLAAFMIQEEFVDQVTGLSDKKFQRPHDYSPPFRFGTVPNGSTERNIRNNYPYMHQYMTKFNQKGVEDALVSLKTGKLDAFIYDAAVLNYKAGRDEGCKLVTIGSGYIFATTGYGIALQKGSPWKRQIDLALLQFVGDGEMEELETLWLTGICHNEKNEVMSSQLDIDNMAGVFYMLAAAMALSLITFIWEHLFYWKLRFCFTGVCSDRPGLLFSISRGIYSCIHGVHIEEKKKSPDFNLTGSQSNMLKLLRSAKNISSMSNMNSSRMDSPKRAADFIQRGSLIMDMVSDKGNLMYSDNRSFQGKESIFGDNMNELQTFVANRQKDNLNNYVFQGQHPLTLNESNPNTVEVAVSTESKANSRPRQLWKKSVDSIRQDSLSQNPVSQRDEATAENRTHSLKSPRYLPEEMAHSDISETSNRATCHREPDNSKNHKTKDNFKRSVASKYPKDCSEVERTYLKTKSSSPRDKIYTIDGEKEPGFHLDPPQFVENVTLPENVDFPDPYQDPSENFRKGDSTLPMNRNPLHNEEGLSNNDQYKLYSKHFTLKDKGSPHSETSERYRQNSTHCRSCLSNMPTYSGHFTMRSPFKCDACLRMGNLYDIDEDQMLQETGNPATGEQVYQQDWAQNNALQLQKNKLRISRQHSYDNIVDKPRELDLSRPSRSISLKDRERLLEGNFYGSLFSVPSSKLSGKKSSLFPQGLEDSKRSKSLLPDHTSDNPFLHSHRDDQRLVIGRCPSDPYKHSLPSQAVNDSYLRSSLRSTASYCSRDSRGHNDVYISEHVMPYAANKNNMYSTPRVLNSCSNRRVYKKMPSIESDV

Compound: Cc1ncc(CNC(=O)c2ccc(CNC(=O)c3cccc(C#N)c3)cn2)s1 [5-{[(3-cyanophenyl)formamido]methyl}-N-[(2-methyl-1,3-thiazol-5-yl)methyl]pyridine-2-carboxamide]
IC50 [1]: 10 µM
IC50 (read-out: Binned Activity): > 10 µM

Compound: Cc1ncc(CNC(=O)c2ccc(CNC(=O)c3cccc(F)c3)cn2)s1 [5-{[(3-fluorophenyl)formamido]methyl}-N-[(2-methyl-1,3-thiazol-5-yl)methyl]pyridine-2-carboxamide]
IC50 [1]: 10 µM
IC50 (read-out: Binned Activity): > 10 µM

Compound: Cc1ncc(CNC(=O)c2cnc(CNC(=O)c3cc(Cl)ccc3F)cn2)s1 [5-{[(5-chloro-2-fluorophenyl)formamido]methyl}-N-[(2-methyl-1,3-thiazol-5-yl)methyl]pyrazine-2-carboxamide]
IC50 [1]: 10 µM
IC50 (read-out: Binned Activity): > 10 µM

Compound: O=C(NC1CCS(=O)(=O)C1)c1ccc(CNS(=O)(=O)c2ccc(F)c(Cl)c2)nc1 (stereo not shown) [6-(3-chloro-4-fluorobenzenesulfon-amidomethyl)-N-(1,1-dioxo-1λ^6-thiolan-3-yl)pyridine-3-carboxamide]
IC50 [1]: 10 µM
IC50 (read-out: Binned Activity): > 10 µM

Compound: O=C(NCc1cnccn1)c1ccc(CNS(=O)(=O)c2ccc(F)c(Cl)c2)nn1 [6-(3-chloro-4-fluorobenzenesulfon-amidomethyl)-N-(pyrazin-2-ylmethyl)pyridazine-3-carboxamide]
IC50 [1]: 10 µM
IC50 (read-out: Binned Activity): > 10 µM

Compound: O=C(NCc1cnccn1)c1ccc(CNS(=O)(=O)c2ccc(F)c(Cl)c2)nc1 [6-(3-chloro-4-fluorobenzenesulfon-amidomethyl)-N-(pyrazin-2-ylmethyl)pyridine-3-carboxamide]
IC50 (read-out: Binned Activity): 0.1 to 1 µM

Compound: O=C(NCc1ccccn1)c1ccc(CNS(=O)(=O)c2ccc(F)c(Cl)c2)nc1 [6-(3-chloro-4-fluorobenzenesulfon-amidomethyl)-N-(pyridin-2-ylmethyl)pyridine-3-carboxamide]
IC50 [1]: 10 µM
IC50 (read-out: Binned Activity): > 10 µM

Compound: O=C(NCc1cccnc1)c1ccc(CNS(=O)(=O)c2ccc(F)c(Cl)c2)nn1 [6-(3-chloro-4-fluorobenzenesulfon-amidomethyl)-N-(pyridin-3-ylmethyl)pyridazine-3-carboxamide]
IC50 [1]: 10 µM
IC50 (read-out: Binned Activity): > 10 µM

Compound: O=C(NCc1cccnc1)c1ccc(CNS(=O)(=O)c2ccc(F)c(Cl)c2)nc1 [6-(3-chloro-4-fluorobenzenesulfon-amidomethyl)-N-(pyridin-3-ylmethyl)pyridine-3-carboxamide]
IC50 (read-out: Binned Activity): > 10 µM

Compound: O=C(NCc1ccncc1)c1ccc(CNS(=O)(=O)c2ccc(F)c(Cl)c2)nc1 [6-(3-chloro-4-fluorobenzenesulfon-amidomethyl)-N-(pyridin-4-ylmethyl)pyridine-3-carboxamide]
IC50 [1]: 10 µM
IC50 (read-out: Binned Activity): > 10 µM

Compound: O=C(NCc1ncccn1)c1ccc(CNS(=O)(=O)c2ccc(F)c(Cl)c2)nn1 [6-(3-chloro-4-fluorobenzenesulfon-amidomethyl)-N-(pyrimidin-2-ylmethyl)pyridazine-3-carboxamide]
IC50 [1]: 10 µM
IC50 (read-out: Binned Activity): > 10 µM

Compound: O=C(NCc1cncnc1)c1ccc(CNS(=O)(=O)c2ccc(F)c(Cl)c2)nn1 [6-(3-chloro-4-fluorobenzenesulfon-amidomethyl)-N-(pyrimidin-5-ylmethyl)pyridazine-3-carboxamide]
IC50 [1]: 10 µM
IC50 (read-out: Binned Activity): > 10 µM

Compound: O=C(NCc1cccs1)c1ccc(CNS(=O)(=O)c2ccc(F)c(Cl)c2)nn1 [6-(3-chloro-4-fluorobenzenesulfon-amidomethyl)-N-(thiophen-2-ylmethyl)pyridazine-3-carboxamide]
IC50 [1]: 10 µM
IC50 (read-out: Binned Activity): > 10 µM

Compound: CC(NC(=O)c1ccc(CNS(=O)(=O)c2ccc(F)c(Cl)c2)nn1)c1ccco1 (stereo not shown) [6-(3-chloro-4-fluorobenzenesulfon-amidomethyl)-N-[1-(furan-2-yl)ethyl]pyridazine-3-carboxamide]
IC50 [1]: 10 µM
IC50 (read-out: Binned Activity): > 10 µM

Compound: CC(NC(=O)c1ccc(CNS(=O)(=O)c2ccc(F)c(Cl)c2)nn1)c1cccs1 (stereo not shown) [6-(3-chloro-4-fluorobenzenesulfon-amidomethyl)-N-[1-(thiophen-2-yl)ethyl]pyridazine-3-carboxamide]
IC50 [1]: 10 µM
IC50 (read-out: Binned Activity): > 10 µM

Compound: CN(C)CCCNC(=O)c1ccc(CNS(=O)(=O)c2ccc(F)c(Cl)c2)nc1 [6-(3-chloro-4-fluorobenzenesulfon-amidomethyl)-N-[3-(dimethylamino)propyl] pyridine-3-carboxamide]
IC50 [1]: 10 µM
IC50 (read-out: Binned Activity): > 10 µM

Results, then the molecule that gave them:

IC50 [1]: 10 µM
IC50 (read-out: Binned Activity): > 10 µM
Compound: Cc1ncc(CNC(=O)c2cnc(CNC(=O)c3cccc(F)c3)cn2)s1 [5-{[(3-fluorophenyl)formamido]methyl}-N-[(2-methyl-1,3-thiazol-5-yl)methyl]pyrazine-2-carboxamide]

IC50 [1]: 10 µM
IC50 (read-out: Binned Activity): > 10 µM
Compound: Cc1ncc(CNC(=O)c2cnc(CNC(=O)c3cc(Cl)ccc3F)c(C)n2)s1 [5-{[(5-chloro-2-fluorophenyl)formamido]methyl}-6-methyl-N-[(2-methyl-1,3-thiazol-5-yl)methyl]pyrazine-2-carboxamide]

IC50 [1]: 10 µM
IC50 (read-out: Binned Activity): > 10 µM
Compound: Cc1ncc(CNC(=O)c2ccc(CNC(=O)c3cc(Cl)ccc3F)cn2)s1 [5-{[(5-chloro-2-fluorophenyl)formamido]methyl}-N-[(2-methyl-1,3-thiazol-5-yl)methyl]pyridine-2-carboxamide]

IC50 [1]: 10 µM
IC50 (read-out: Binned Activity): > 10 µM
Compound: O=C(NCc1ccno1)c1ccc(CNS(=O)(=O)c2ccc(F)c(Cl)c2)nc1 [6-(3-chloro-4-fluorobenzenesulfon-amidomethyl)-N-(1,2-oxazol-5-ylmethyl)pyridine-3-carboxamide]

IC50 [1]: 10 µM
IC50 (read-out: Binned Activity): > 10 µM
Compound: O=C(NCc1cocn1)c1ccc(CNS(=O)(=O)c2ccc(F)c(Cl)c2)nn1 [6-(3-chloro-4-fluorobenzenesulfon-amidomethyl)-N-(1,3-oxazol-4-ylmethyl)pyridazine-3-carboxamide]

IC50 [1]: 10 µM
IC50 (read-out: Binned Activity): > 10 µM
Compound: O=C(NCc1cocn1)c1ccc(CNS(=O)(=O)c2ccc(F)c(Cl)c2)nc1 [6-(3-chloro-4-fluorobenzenesulfon-amidomethyl)-N-(1,3-oxazol-4-ylmethyl)pyridine-3-carboxamide]

IC50 [1]: 10 µM
IC50 (read-out: Binned Activity): > 10 µM
Compound: O=C(NCc1nccs1)c1ccc(CNS(=O)(=O)c2ccc(F)c(Cl)c2)nc1 [6-(3-chloro-4-fluorobenzenesulfon-amidomethyl)-N-(1,3-thiazol-2-ylmethyl)pyridine-3-carboxamide]

IC50 [1]: 10 µM
IC50 (read-out: Binned Activity): > 10 µM
Compound: O=C(NCc1cncs1)c1ccc(CNS(=O)(=O)c2ccc(F)c(Cl)c2)nn1 [6-(3-chloro-4-fluorobenzenesulfon-amidomethyl)-N-(1,3-thiazol-5-ylmethyl)pyridazine-3-carboxamide]

IC50 [1]: 10 µM
IC50 (read-out: Binned Activity): > 10 µM
Compound: O=C(NCc1cncs1)c1ccc(CNS(=O)(=O)c2ccc(F)c(Cl)c2)nc1 [6-(3-chloro-4-fluorobenzenesulfon-amidomethyl)-N-(1,3-thiazol-5-ylmethyl)pyridine-3-carboxamide]

IC50 [1]: 10 µM
IC50 (read-out: Binned Activity): > 10 µM
Compound: O=C(NCc1ccco1)c1ccc(CNS(=O)(=O)c2ccc(F)c(Cl)c2)nn1 [6-(3-chloro-4-fluorobenzenesulfon-amidomethyl)-N-(furan-2-ylmethyl)pyridazine-3-carboxamide]

IC50 [1]: 10 µM
IC50 (read-out: Binned Activity): > 10 µM
Compound: O=C(NCc1ccoc1)c1ccc(CNS(=O)(=O)c2ccc(F)c(Cl)c2)nn1 [6-(3-chloro-4-fluorobenzenesulfon-amidomethyl)-N-(furan-3-ylmethyl)pyridazine-3-carboxamide]

IC50 [1]: 10 µM
IC50 (read-out: Binned Activity): > 10 µM
Compound: O=C(NCc1ccccn1)c1ccc(CNS(=O)(=O)c2ccc(F)c(Cl)c2)nn1 [6-(3-chloro-4-fluorobenzenesulfon-amidomethyl)-N-(pyridin-2-ylmethyl)pyridazine-3-carboxamide]

IC50 [1]: 10 µM
IC50 (read-out: Binned Activity): > 10 µM
Compound: O=C(NCc1ccncc1)c1ccc(CNS(=O)(=O)c2ccc(F)c(Cl)c2)nn1 [6-(3-chloro-4-fluorobenzenesulfon-amidomethyl)-N-(pyridin-4-ylmethyl)pyridazine-3-carboxamide]

IC50 [1]: 10 µM
IC50 (read-out: Binned Activity): > 10 µM
Compound: O=C(NCc1ncccn1)c1ccc(CNS(=O)(=O)c2ccc(F)c(Cl)c2)nc1 [6-(3-chloro-4-fluorobenzenesulfon-amidomethyl)-N-(pyrimidin-2-ylmethyl)pyridine-3-carboxamide]

IC50 [1]: 10 µM
IC50 (read-out: Binned Activity): > 10 µM
Compound: O=C(NCc1ccncn1)c1ccc(CNS(=O)(=O)c2ccc(F)c(Cl)c2)nn1 [6-(3-chloro-4-fluorobenzenesulfon-amidomethyl)-N-(pyrimidin-4-ylmethyl)pyridazine-3-carboxamide]

IC50 [1]: 10 µM
IC50 (read-out: Binned Activity): > 10 µM
Compound: O=C(NCc1ccncn1)c1ccc(CNS(=O)(=O)c2ccc(F)c(Cl)c2)nc1 [6-(3-chloro-4-fluorobenzenesulfon-amidomethyl)-N-(pyrimidin-4-ylmethyl)pyridine-3-carboxamide]

IC50 [1]: 10 µM
IC50 (read-out: Binned Activity): > 10 µM
Compound: O=C(NCc1cncnc1)c1ccc(CNS(=O)(=O)c2ccc(F)c(Cl)c2)nc1 [6-(3-chloro-4-fluorobenzenesulfon-amidomethyl)-N-(pyrimidin-5-ylmethyl)pyridine-3-carboxamide]

IC50 [1]: 10 µM
IC50 (read-out: Binned Activity): > 10 µM
Compound: COc1ccc(CCNC(=O)c2ccc(CNS(=O)(=O)c3ccc(F)c(Cl)c3)nn2)cc1 [6-(3-chloro-4-fluorobenzenesulfon-amidomethyl)-N-[2-(4-methoxyphenyl)ethyl] pyridazine-3-carboxamide]

IC50 [1]: 10 µM
IC50 (read-out: Binned Activity): > 10 µM
Compound: CN(C)CCNC(=O)c1ccc(CNS(=O)(=O)c2ccc(F)c(Cl)c2)nc1 [6-(3-chloro-4-fluorobenzenesulfon-amidomethyl)-N-[2-(dimethylamino)ethyl] pyridine-3-carboxamide]

IC50 [1]: 10 µM
IC50 (read-out: Binned Activity): > 10 µM
Compound: CN(C)CCCCNC(=O)c1ccc(CNS(=O)(=O)c2ccc(F)c(Cl)c2)nc1 [6-(3-chloro-4-fluorobenzenesulfon-amidomethyl)-N-[4-(dimethylamino)butyl] pyridine-3-carboxamide]
